Source: PubChem BioAssay (NCI)
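Compound exposure: 48 hours, 5 concentrations, 96-well plates. GI50 is the concentration that inhibits growth by half. TGI marks complete inhibition of growth.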

Assays:
Assay in all cases: NCI anticancer screen, dose series, 48 h
MDA-MB-231 breast = tested on: MDA-MB-231 breast
ACHN renal = tested on: ACHN renal
BT-549 breast = tested on: BT-549 breast
MDA-MB-435 = tested on: MDA-MB-435
LOX IMVI melanoma = tested on: LOX IMVI melanoma
M14 melanoma = tested on: M14 melanoma
NCI/ADR-RES ovarian = tested on: NCI/ADR-RES ovarian
OVCAR-5 ovarian = tested on: OVCAR-5 ovarian
HCT-116 colon = tested on: HCT-116 colon
NCI-H23 lung = tested on: NCI-H23 lung
UACC-62 melanoma = tested on: UACC-62 melanoma
TK-10 renal = tested on: TK-10 renal
DU-145 prostate = tested on: DU-145 prostate
HOP-62 NSCLC = tested on: HOP-62 NSCLC
SK-OV-3 ovarian = tested on: SK-OV-3 ovarian
HL-60(TB) leukemia = tested on: HL-60(TB) leukemia
COLO 205 colon = tested on: COLO 205 colon
MCF7 breast = tested on: MCF7 breast
CCRF-CEM leukemia = tested on: CCRF-CEM leukemia
SR leukemia = tested on: SR leukemia
NCI-H460 lung = tested on: NCI-H460 lung
SK-MEL-28 melanoma = tested on: SK-MEL-28 melanoma
NCI-H226 lung = tested on: NCI-H226 lung
OVCAR-8 ovarian = tested on: OVCAR-8 ovarian
SNB-19 CNS = tested on: SNB-19 CNS
A498 renal = tested on: A498 renal
PC-3 prostate = tested on: PC-3 prostate
SN12C renal = tested on: SN12C renal
IGROV1 ovarian = tested on: IGROV1 ovarian
EKVX NSCLC = tested on: EKVX NSCLC
SK-MEL-5 melanoma = tested on: SK-MEL-5 melanoma
MALME-3M melanoma = tested on: MALME-3M melanoma
MDA-MB-468 breast = tested on: MDA-MB-468 breast
RXF 393 renal = tested on: RXF 393 renal
MOLT-4 leukemia = tested on: MOLT-4 leukemia
HCT-15 colon = tested on: HCT-15 colon
KM12 colon = tested on: KM12 colon
OVCAR-3 ovarian = tested on: OVCAR-3 ovarian
NCI-H522 lung = tested on: NCI-H522 lung
OVCAR-4 ovarian = tested on: OVCAR-4 ovarian
UO-31 renal = tested on: UO-31 renal
HCC-2998 colon = tested on: HCC-2998 colon
U251 CNS = tested on: U251 CNS
SW-620 colon = tested on: SW-620 colon
786-0 renal = tested on: 786-0 renal
T-47D breast = tested on: T-47D breast
CAKI-1 renal = tested on: CAKI-1 renal
HS 578T breast = tested on: HS 578T breast
SF-539 CNS = tested on: SF-539 CNS
SF-268 CNS = tested on: SF-268 CNS
HT29 colon = tested on: HT29 colon
UACC-257 melanoma = tested on: UACC-257 melanoma
SF-295 CNS = tested on: SF-295 CNS
K-562 leukemia = tested on: K-562 leukemia
RPMI-8226 leukemia = tested on: RPMI-8226 leukemia
SK-MEL-2 melanoma = tested on: SK-MEL-2 melanoma

## CN1CCN(c2ccc(C(=O)/C=C/c3cc(C(F)(F)F)cc(C(F)(F)F)c3)cc2)CC1
MDA-MB-231 breast
  GI50: 1750 nM
  TGI: 3350 nM
ACHN renal
  GI50: 1490 nM
  TGI: 2820 nM
BT-549 breast
  GI50: 1330 nM
  TGI: 2660 nM
MDA-MB-435
  GI50: 1600 nM
  TGI: 3070 nM
LOX IMVI melanoma
  GI50: 1350 nM
  TGI: 2630 nM
M14 melanoma
  GI50: 1520 nM
  TGI: 2970 nM
NCI/ADR-RES ovarian
  GI50: 1640 nM
  TGI: 3640 nM
OVCAR-5 ovarian
  GI50: 1680 nM
  TGI: 3200 nM
HCT-116 colon
  GI50: 1150 nM
  TGI: 2450 nM
NCI-H23 lung
  GI50: 1510 nM
  TGI: 2970 nM
UACC-62 melanoma
  GI50: 1500 nM
  TGI: 2860 nM
TK-10 renal
  GI50: 2000 nM
  TGI: 3450 nM
DU-145 prostate
  GI50: 1630 nM
  TGI: 3040 nM
HOP-62 NSCLC
  GI50: 1860 nM
  TGI: 3750 nM
SK-OV-3 ovarian
  GI50: 2600 nM
  TGI: 6120 nM
HL-60(TB) leukemia
  GI50: 1040 nM
  TGI: 2790 nM
COLO 205 colon
  GI50: 2030 nM
  TGI: 3870 nM
MCF7 breast
  GI50: 1200 nM
  TGI: 2560 nM
CCRF-CEM leukemia
  GI50: 2380 nM
  TGI: 5870 nM
SR leukemia
  GI50: 1170 nM
  TGI: 3930 nM
NCI-H460 lung
  GI50: 2890 nM
  TGI: > 100000 nM
SK-MEL-28 melanoma
  GI50: 1680 nM
  TGI: 3050 nM
NCI-H226 lung
  GI50: 1490 nM
  TGI: 3200 nM
OVCAR-8 ovarian
  GI50: 1730 nM
  TGI: 4360 nM
SNB-19 CNS
  GI50: 1730 nM
  TGI: 3100 nM
A498 renal
  GI50: 17900 nM
  TGI: 35600 nM
PC-3 prostate
  GI50: 1640 nM
  TGI: 3320 nM
SN12C renal
  GI50: 1300 nM
  TGI: 2590 nM
IGROV1 ovarian
  GI50: 1650 nM
  TGI: 3150 nM
EKVX NSCLC
  GI50: 1870 nM
  TGI: 3410 nM
SK-MEL-5 melanoma
  GI50: 1550 nM
  TGI: 2900 nM
MALME-3M melanoma
  GI50: 1660 nM
  TGI: 3070 nM
MDA-MB-468 breast
  GI50: 1240 nM
  TGI: 2560 nM
RXF 393 renal
  GI50: 1190 nM
  TGI: 2570 nM
MOLT-4 leukemia
  GI50: 1420 nM
  TGI: 5010 nM
HCT-15 colon
  GI50: 1120 nM
  TGI: 2390 nM
KM12 colon
  GI50: 1760 nM
  TGI: 3820 nM
OVCAR-3 ovarian
  GI50: 1450 nM
  TGI: 2940 nM
NCI-H522 lung
  GI50: 1400 nM
  TGI: 2970 nM
OVCAR-4 ovarian
  GI50: 1520 nM
  TGI: 3490 nM
UO-31 renal
  GI50: 1460 nM
  TGI: 2780 nM
HCC-2998 colon
  GI50: 1390 nM
  TGI: 2680 nM
U251 CNS
  GI50: 1660 nM
  TGI: 3180 nM
SW-620 colon
  GI50: 1810 nM
  TGI: 4510 nM
786-0 renal
  GI50: 1680 nM
  TGI: 3110 nM
T-47D breast
  GI50: 1270 nM
  TGI: 3100 nM
CAKI-1 renal
  GI50: 1660 nM
  TGI: 3260 nM
HS 578T breast
  GI50: 4880 nM
  TGI: 34700 nM
SF-539 CNS
  GI50: 1640 nM
  TGI: 3000 nM
SF-268 CNS
  GI50: 1820 nM
  TGI: 3710 nM
HT29 colon
  GI50: 1620 nM
  TGI: 3410 nM
UACC-257 melanoma
  GI50: 1730 nM
  TGI: 3580 nM
SF-295 CNS
  GI50: 1470 nM
  TGI: 2820 nM
K-562 leukemia
  GI50: 1070 nM
  TGI: 6370 nM
RPMI-8226 leukemia
  GI50: 1440 nM
  TGI: 3800 nM
SK-MEL-2 melanoma
  GI50: 1730 nM
  TGI: 3230 nM
